Source: US20240116985A1, “STAPLED PEPTIDES AND METHODS THEREOF” (priority 2020, published 2024)
pEC50: −log10 of the molar value.

Key:
[1] = target: T1, full-length B-Catenin (Uniprot ID P35222) (Homo sapiens, UniProt P35222); experiment: Alphascreen binding assay (beta-catenin / biotin-TCF4 10-53)
T1 construct: 65 nM full-length B-Catenin (Uniprot ID P35222)
T1 sequence (P35222 1-781): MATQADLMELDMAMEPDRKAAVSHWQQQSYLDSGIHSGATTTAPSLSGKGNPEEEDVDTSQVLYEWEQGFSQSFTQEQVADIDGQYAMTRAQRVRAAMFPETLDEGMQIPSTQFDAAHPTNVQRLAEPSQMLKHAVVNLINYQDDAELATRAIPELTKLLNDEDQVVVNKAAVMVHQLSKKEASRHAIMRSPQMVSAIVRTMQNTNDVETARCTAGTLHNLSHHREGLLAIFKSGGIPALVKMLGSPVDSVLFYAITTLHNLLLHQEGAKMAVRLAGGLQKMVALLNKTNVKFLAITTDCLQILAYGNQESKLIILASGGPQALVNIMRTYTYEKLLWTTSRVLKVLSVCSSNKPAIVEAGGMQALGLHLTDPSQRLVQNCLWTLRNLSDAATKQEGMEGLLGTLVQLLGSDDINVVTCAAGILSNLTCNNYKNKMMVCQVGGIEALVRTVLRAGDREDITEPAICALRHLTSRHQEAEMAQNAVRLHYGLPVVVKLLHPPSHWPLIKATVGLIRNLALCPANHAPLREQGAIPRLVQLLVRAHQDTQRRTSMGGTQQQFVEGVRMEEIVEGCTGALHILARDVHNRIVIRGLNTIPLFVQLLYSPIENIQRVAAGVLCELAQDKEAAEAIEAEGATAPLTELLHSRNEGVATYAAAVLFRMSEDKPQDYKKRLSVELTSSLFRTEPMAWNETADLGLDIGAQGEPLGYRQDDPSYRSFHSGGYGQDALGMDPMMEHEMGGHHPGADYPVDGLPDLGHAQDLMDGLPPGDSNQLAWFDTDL
Protocol: In some embodiments, an assay is an Alphascreen binding assay. A useful protocol is described below as an example.
Alphascreen binding assay: Using the AlphaScreen Histidine (Nickel Chelate) Detection Kit (PerkinElmer), peptide solutions were prepared in buffer (50 mM Tris pH 8.0, 250 mM NaCl, 2% glycerol, 0.03% Tween-20, 0.01% TritonX-100, 0.1% BSA w/v) using a 3-fold serial dilution from 10 uM to 5 nM. Probe solution (65 nM full-length B-Catenin (Uniprot ID P35222), mixed with 10 nM biotin labeled TCF4 residues 10-53 (Uniprot ID Q9NQB0) peptide in buffer) was prepared and 4 uL per well was plated in a white polystyrene 384-well plate (Corning). Equal volume of the titrated peptide was added to the plate and incubated for 15 minutes at 20° C. Then 4 uL of donor and 4 uL acceptor beads at 10 ug/mL were added to the plate, for a 16 uL reaction pool and protected from light for 60 minutes at 20° C. prior to read. Reads were performed on a CLARIOstar plate reader (BMG Labtech) in duplicate, and data were fitted to a 1:1 binding model with hill slope using an in-house script. All provided concentrations are final concentrations.

CHI Log D procedure = type: physicochemical; settings: for CHI Log D: pH 7.4; for chromatographic logD: pH 7.4, CHI Log D

Row | SMILES | pEC50 [1] | CHI Log D (CHI Log D procedure) | chromatographic logD (CHI Log D procedure)
1 | CC(=O)N[C@@H](Cc1ccccc1)C(=O)N[C@@H](CC(=O)O)C(=O)N[C@@H](C)C(=O)N[C@]1(C)CCCCCC=CCOC(=O)N2CC[C@@](C(=O)N[C@@H](Cc3ccccc3)C(=O)N[C@@H](Cc3c[nH]c4ccccc34)C(=O)N[C@@H](CCC(N)=O)C(N)=O)(C2)NC(=O)[C@H](C(C)C)NC(=O)[C@H](Cc2ccccc2)NC(=O)[C@H](C)NC(=O)[C@H](C)NC(=O)[C@H](CC(=O)O)NC(=O)[C@H](CC(=O)O)NC1=O [I-31, Ac-Phe-Asp-Ala-R7-Asp-Asp-Ala-Ala-Phe-Val-PyrS-Phe-Trp-Gln-NH2] | 5.14 | 1.245 | –
2 | CC(=O)N[C@@H](Cc1ccccc1)C(=O)N[C@@H](CC(=O)O)C(=O)N[C@@H](C)C(=O)NC12CN(C1)C(=O)OCC=CCCCCCC[C@@](C)(C(=O)N[C@@H](Cc1ccccc1)C(=O)N[C@@H](Cc1c[nH]c3ccccc13)C(=O)N[C@@H](CCC(N)=O)C(N)=O)NC(=O)[C@H](C(C)C)NC(=O)[C@H](Cc1ccccc1)NC(=O)[C@H](C)NC(=O)[C@H](C)NC(=O)[C@H](CC(=O)O)NC(=O)[C@H](CC(=O)O)NC2=O [I-35, Ac-Phe-Asp-Ala-Az-Asp-Asp-Ala-Ala-Phe-Val-S8-Phe-Trp-Gln-NH2] | 5.02 | – | 1.33
3 | CC(=O)N[C@@H](Cc1ccccc1)C(=O)N[C@@H](CC(=O)O)C(=O)N[C@@H](C)C(=O)N[C@]1(C)CCCCCCC=CCOC(=O)N2CC[C@@](C(=O)N[C@@H](CC3CCCCC3)C(=O)N[C@@H](Cc3c[nH]c4ccccc34)C(=O)N[C@@H](CCC(N)=O)C(N)=O)(C2)NC(=O)[C@H](C(C)C)NC(=O)[C@H](Cc2ccccc2)NC(=O)[C@H](C)NC(=O)[C@H](C)NC(=O)[C@H](CC(=O)O)NC(=O)[C@H](CC(=O)O)NC1=O [I-61, Ac-Phe-Asp-Ala-R8-Asp-Asp-Ala-Ala-Phe-Val-PyrS-Cha-Trp-Gln-NH2] | 5.05 | 1.446 | –
4 | CCCC[C@@H]1NC(=O)[C@H](CC(=O)O)NC(=O)[C@](C)(NC(=O)[C@@H](NC(=O)[C@H](CC(=O)O)NC(=O)[C@H](C)NC(C)=O)[C@@H](C)CC)CCN(C)C(=O)OCC=CCCCCC[C@@](C)(C(=O)N[C@@H](Cc2ccccc2)C(=O)N[C@@H](Cc2c[nH]c3ccccc23)C(=O)N[C@@H](Cc2c[nH]cn2)C(N)=O)NC(=O)[C@H](CCC(N)=O)NC(=O)[C@H](Cc2ccccc2)NC(=O)[C@H](C)NC(=O)[C@H](C)NC1=O [I-69, Ac-Ala-Asp-Ile-RdN-Asp-nLeu-Ala-Ala-Phe-Gln-S7-Phe-Trp-His-NH2] | 5.04 | 1.593 | –
5 | CC(=O)N[C@@H](Cc1ccccc1)C(=O)N[C@@H](CC(=O)O)C(=O)N[C@@H](C)C(=O)N[C@]1(C)CCCCCCC=CCOC(=O)N2CC[C@@](C(=O)N[C@@H](Cc3ccccn3)C(=O)N[C@@H](Cc3c[nH]c4ccccc34)C(=O)N[C@@H](CCC(N)=O)C(N)=O)(C2)NC(=O)[C@H](C(C)C)NC(=O)[C@H](Cc2ccccc2)NC(=O)[C@H](C)NC(=O)[C@H](C)NC(=O)[C@H](CC(=O)O)NC(=O)[C@H](CC(=O)O)NC1=O [I-81, Ac-Phe-Asp-Ala-R8-Asp-Asp-Ala-Ala-Phe-Val-PyrS-2PyrA-Trp-Gln-NH2] | 5.01 | 1.063 | –
6 | CC(=O)N[C@@H](Cc1ccccc1)C(=O)N[C@@H](CC(=O)O)C(=O)N[C@@H](C)C(=O)N[C@]1(C)CCCCCCC=CCOC(=O)N2CC[C@@](C(=O)N[C@@H](Cc3ccc(C(N)=O)cc3)C(=O)N[C@@H](Cc3c[nH]c4ccccc34)C(=O)N[C@@H](CCC(N)=O)C(N)=O)(C2)NC(=O)[C@H](C(C)C)NC(=O)[C@H](Cc2ccccc2)NC(=O)[C@H](C)NC(=O)[C@H](C)NC(=O)[C@H](CC(=O)O)NC(=O)[C@H](CC(=O)O)NC1=O [I-89, Ac-Phe-Asp-Ala-R8-Asp-Asp-Ala-Ala-Phe-Val-PyrS-4CBMF-Trp-Gln-NH2] | 5.25 | 0.967 | –
7 | CC(=O)N[C@@H](Cc1ccccc1)C(=O)N[C@@H](CC(=O)O)C(=O)N[C@@H](C)C(=O)N[C@]1(C)CCCCCCC=CCOC(=O)N2CC[C@@](C(=O)N[C@@H](Cc3ccccc3)C(=O)N[C@@H](Cc3c[nH]c4ccccc34)C(=O)N[C@@H](CCC(N)=O)C(N)=O)(C2)NC(=O)[C@H](C(C)C)NC(=O)[C@H](Cc2ccccc2)NC(=O)[C@H](C)NC(=O)[C@H](C)NC(=O)[C@H](CCc2ccccc2)NC(=O)[C@H](CC(=O)O)NC1=O [I-97, Ac-Phe-Asp-Ala-R8-Asp-hPhe-Ala-Ala-Phe-Val-PyrS-Phe-Trp-Gln-NH2] | 5.15 | 2.062 | –

Stronger by pEC50 [1], values ahead:

Row | pEC50 [1] | CHI Log D (CHI Log D procedure) | chromatographic logD (CHI Log D procedure) | SMILES
8 | 5.31 | 1.268 | – | COc1cccc(C[C@@H]2NC(=O)[C@H](C)NC(=O)[C@H](C)NC(=O)[C@H](CC(=O)O)NC(=O)[C@H](CC(=O)O)NC(=O)[C@](C)(NC(=O)[C@H](C)NC(=O)[C@H](CC(=O)O)NC(=O)[C@H](Cc3ccccc3)NC(C)=O)CCCCCCC=CCOC(=O)N3CC[C@@](C(=O)N[C@@H](Cc4ccccc4)C(=O)N[C@@H](Cc4c[nH]c5ccccc45)C(=O)N[C@@H](CCC(N)=O)C(N)=O)(C3)NC(=O)[C@H](C(C)C)NC2=O)c1 [I-103, Ac-Phe-Asp-Ala-R8-Asp-Asp-Ala-Ala-3OMeF-Val-PyrS-Phe-Trp-Gln-NH2]
9 | 5.33 | 1.13 | – | CC(=O)N[C@@H](Cc1ccccc1)C(=O)N[C@@H](CC(=O)O)C(=O)N[C@@H](C)C(=O)N[C@]1(C)CCCCCCC=CCOC(=O)N2CC[C@@](C(=O)N[C@@H](Cc3ccccc3)C(=O)N[C@@H](Cc3c[nH]c4ccccc34)C(=O)N[C@@H](CCC(N)=O)C(N)=O)(C2)NC(=O)[C@H](C(C)C)NC(=O)[C@H](Cc2ccc(C(N)=O)cc2)NC(=O)[C@H](C)NC(=O)[C@H](C)NC(=O)[C@H](CC(=O)O)NC(=O)[C@H](CC(=O)O)NC1=O [I-91, Ac-Phe-Asp-Ala-R8-Asp-Asp-Ala-Ala-4CBMF-Val-PyrS-Phe-Trp-Gln-NH2]
10 | 5.40 | – | 1.27 | CC(=O)N[C@@H](Cc1ccccc1)C(=O)N[C@@H](CC(=O)O)C(=O)N[C@@H](C)C(=O)N[C@]1(C)CCCCCCC=CCOC(=O)N2CC[C@@](C(=O)N[C@@H](Cc3ccccc3)C(=O)N[C@@H](Cc3c[nH]c4ccccc34)C(=O)N[C@@H](CCC(N)=O)C(N)=O)(C2)NC(=O)[C@H](C(C)C)NC(=O)[C@H](Cc2ccc(F)c(F)c2)NC(=O)[C@H](C)NC(=O)[C@H](C)NC(=O)[C@H](CC(=O)O)NC(=O)[C@H](CC(=O)O)NC1=O [I-79, Ac-Phe-Asp-Ala-R8-Asp-Asp-Ala-Ala-34FF-Val-PyrS-Phe-Trp-Gln-NH2]
11 | 5.68 | 1.274 | – | CC[C@H](C)[C@H](NC(=O)[C@H](CC(=O)O)NC(=O)[C@H](C)NC(C)=O)C(=O)N[C@]1(C)CCN(C)C(=O)OCC=CCCCCC[C@@](C)(C(=O)N[C@@H](Cc2ccccc2)C(=O)N[C@@H](Cc2c[nH]c3ccccc23)C(=O)N[C@@H](Cc2c[nH]cn2)C(N)=O)NC(=O)[C@H](CCC(N)=O)NC(=O)[C@H](Cc2ccccc2)NC(=O)[C@H](C)NC(=O)[C@H](C)NC(=O)[C@H](CC(=O)O)NC(=O)[C@H](CC(=O)O)NC1=O [I-65, Ac-Ala-Asp-Ile-RdN-Asp-Asp-Ala-Ala-Phe-Gln-S7-Phe-Trp-His-NH2]
12 | 5.94 | 1.307 | – | CC(=O)N1CCC[C@]12CC=CCCCC1(CCCC=CCOC(=O)N(C)CCC[C@@](C)(C(=O)N[C@@H](Cc3ccccc3)C(=O)N[C@@H](Cc3c[nH]c4ccccc34)C(=O)N[C@@H](CCC(N)=O)C(N)=O)NC(=O)[C@H](C(C)C)NC(=O)[C@H](Cc3ccccc3)NC(=O)[C@H](C)NC(=O)[C@H](C)NC(=O)[C@H](CC(=O)O)NC(=O)[C@H](CC(=O)O)NC1=O)NC(=O)[C@H](C)NC(=O)[C@H](CC(=O)O)NC2=O (stereo partly drawn) [I-53, Ac-PL3-Asp-Ala-B5-Asp-Asp-Ala-Ala-Phe-Val-SeN-Phe-Trp-Gln-NH2]
